The results in this text go back to ChEMBL document CHEMBL4837240 (J Med Chem, 2021).

Active and inactive are the calls of the source. The calls are words filed in the database; no cut-off is given here.

Data set [1] can be described thus: Toxicity in BALB/c mouse xenografted with MDA-MB-231 cells assessed as LDH level in blood at 300 mg/kg, po. In kind it is organism-based. The settings on record: in vivo.
Data set [2] is described as follows: Toxicity in BALB/c mouse xenografted with MDA-MB-231 cells assessed as AST level in blood at 300 mg/kg, po. In kind it is organism-based. The settings on record: in vivo.
Data set [3] in a line: Toxicity in BALB/c mouse xenografted with MDA-MB-231 cells assessed as ALT level in blood at 300 mg/kg, po. The settings on record: in vivo. In kind it is organism-based.
Data set [4] relates to MDA-MB-231. Kind of data set: Antimetastatic activity against human MDA-MB-231 cells injected into vein of BALB/c mouse lung metastatic model assessed as less lung metastatic nodules at 25 mg/kg, po once a day measured on day 21. In kind it is functional, organism-based. To be noted: time 21.0 day.
For data set [5], the system named is MDA-MB-231. Kind of data set: Anticancer activity against human MDA-MB-231 cells assessed as cell viability incubated for 48 hrs by MTT assay. To be noted: MDA-MB-231, 48 h.
Another data set concerns MDA-MB-436. Description: Anticancer activity against human MDA-MB-436 cells assessed as cell viability incubated for 48 hrs by MTT assay. The settings on record: MDA-MB-436, 48 h.
Data set [6] in a line: Antiproliferative activity against VEGF-C-induced human dermal lymphatic endothelial cells assessed as cell viability incubated for 48 hrs by CCK-8 assay. In kind it is functional, tissue-based. To be noted: HDLEC.
Data set [7] is described as follows: Antiproliferative activity against VEGF-D-induced human dermal lymphatic endothelial cells assessed as cell viability incubated for 48 hrs by CCK-8 assay. In kind it is functional, tissue-based. The settings on record: HDLEC.
Data set [8] deals with HDLEC. Description: Anti-lymphangiogenic activity against human dermal lymphatic endothelial cells assessed as inhibition of VEGF-C-mediated tube formation at 100 nM incubated for 12 hrs by inverted microscopy. In kind it is functional, tissue-based.
Data set [9] deals with HDLEC. Kind of data set: Inhibition of cell migration in VEGF-C-induced human dermal lymphatic endothelial cells assessed as cell migration at 100 nM incubated for 24 hrs by inverted microscopy based by scratch wound healing assay. It counts as functional, tissue-based.
Data set [10] deals with HDLEC. Description: Antimigratory activity against VEGF-C-induced human dermal lymphatic endothelial cells assessed as cell migration at 100 nM incubated for 12 hrs by inverted microscopy based by transwell assay. In kind it is functional, tissue-based.
The nature of data set [11]: Toxicity in BALB/c mouse xenografted with MDA-MB-231 cells assessed as effect on body weight at 50 mg/kg, po. It counts as organism-based. To be noted: in vivo.
Data set [12] in a line: Toxicity in BALB/c mouse xenografted with MDA-MB-231 cells assessed as creatinine level in blood at 300 mg/kg, po. It counts as organism-based. To be noted: in vivo.
The nature of data set [13]: Toxicity in BALB/c mouse xenografted with MDA-MB-231 cells assessed as uric acid level in blood at 300 mg/kg, po. It counts as organism-based. To be noted: in vivo.
A short description of data set [14]: Toxicity in BALB/c mouse xenografted with MDA-MB-231 cells assessed as change in heart at 300 mg/kg, po by hematoxylin and eosin staining based analysis. It counts as organism-based. The settings on record: in vivo.
Data set [15] in a line: Toxicity in BALB/c mouse xenografted with MDA-MB-231 cells assessed as change in liver at 300 mg/kg, po by hematoxylin and eosin staining based analysis. It counts as organism-based. To be noted: in vivo.
A short description of data set [16]: Toxicity in BALB/c mouse xenografted with MDA-MB-231 cells assessed as change in spleen at 300 mg/kg, po by hematoxylin and eosin staining based analysis. It counts as organism-based. To be noted: in vivo.
The nature of data set [17]: Toxicity in BALB/c mouse xenografted with MDA-MB-231 cells assessed as change in lung at 300 mg/kg, po by hematoxylin and eosin staining based analysis. In kind it is organism-based. The settings on record: in vivo.
The nature of data set [18]: Toxicity in BALB/c mouse xenografted with MDA-MB-231 cells assessed as change in kidney at 300 mg/kg, po by hematoxylin and eosin staining based analysis. It counts as organism-based. To be noted: in vivo.
A short description of data set [19]: Toxicity in BALB/c mouse xenografted with MDA-MB-231 cells assessed as change in liver at 25 mg/kg, po by hematoxylin and eosin staining based analysis. In kind it is organism-based. To be noted: in vivo.
Data set [20] has as its target Platelet-derived growth factor receptor beta (Homo sapiens, UniProt P09619). Description: Inhibition of PDGFRbeta (unknown origin).
Data set [21] addresses Platelet-derived growth factor receptor alpha (Homo sapiens, UniProt P16234). Kind of data set: Inhibition of PDGFRalpha (unknown origin).
Data set [22] concerns the target Mast/stem cell growth factor receptor Kit (Homo sapiens, UniProt P10721). Description: Inhibition of c-Kit (unknown origin).

Chain of Platelet-derived growth factor receptor beta (P09619 whole entry): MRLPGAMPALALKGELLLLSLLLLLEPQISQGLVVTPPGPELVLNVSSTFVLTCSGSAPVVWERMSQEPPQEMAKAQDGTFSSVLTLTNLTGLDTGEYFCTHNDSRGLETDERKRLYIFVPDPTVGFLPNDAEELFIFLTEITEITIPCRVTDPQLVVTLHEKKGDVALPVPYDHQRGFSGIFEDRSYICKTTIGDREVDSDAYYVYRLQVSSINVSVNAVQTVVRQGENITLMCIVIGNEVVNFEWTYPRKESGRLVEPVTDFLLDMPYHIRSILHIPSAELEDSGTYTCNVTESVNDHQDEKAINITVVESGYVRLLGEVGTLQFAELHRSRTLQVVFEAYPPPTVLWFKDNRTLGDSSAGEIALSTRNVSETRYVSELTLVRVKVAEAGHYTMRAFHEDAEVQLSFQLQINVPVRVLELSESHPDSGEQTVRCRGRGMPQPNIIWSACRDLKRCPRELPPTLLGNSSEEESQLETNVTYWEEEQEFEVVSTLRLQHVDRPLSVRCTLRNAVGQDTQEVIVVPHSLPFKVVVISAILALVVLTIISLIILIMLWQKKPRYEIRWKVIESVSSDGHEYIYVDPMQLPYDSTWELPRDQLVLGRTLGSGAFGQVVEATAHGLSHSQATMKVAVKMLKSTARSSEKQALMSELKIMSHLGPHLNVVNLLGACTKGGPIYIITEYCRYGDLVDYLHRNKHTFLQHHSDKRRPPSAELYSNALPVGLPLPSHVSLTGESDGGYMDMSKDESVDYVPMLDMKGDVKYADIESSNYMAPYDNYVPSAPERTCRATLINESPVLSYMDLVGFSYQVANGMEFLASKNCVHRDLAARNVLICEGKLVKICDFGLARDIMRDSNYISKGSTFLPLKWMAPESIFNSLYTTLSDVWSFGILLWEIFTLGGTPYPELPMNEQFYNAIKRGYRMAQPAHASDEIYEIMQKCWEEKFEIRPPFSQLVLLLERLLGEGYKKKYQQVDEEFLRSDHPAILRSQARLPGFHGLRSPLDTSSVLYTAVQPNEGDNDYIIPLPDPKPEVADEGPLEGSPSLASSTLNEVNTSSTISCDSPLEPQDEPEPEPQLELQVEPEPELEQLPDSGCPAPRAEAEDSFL
Chain of Platelet-derived growth factor receptor alpha (P16234 whole entry): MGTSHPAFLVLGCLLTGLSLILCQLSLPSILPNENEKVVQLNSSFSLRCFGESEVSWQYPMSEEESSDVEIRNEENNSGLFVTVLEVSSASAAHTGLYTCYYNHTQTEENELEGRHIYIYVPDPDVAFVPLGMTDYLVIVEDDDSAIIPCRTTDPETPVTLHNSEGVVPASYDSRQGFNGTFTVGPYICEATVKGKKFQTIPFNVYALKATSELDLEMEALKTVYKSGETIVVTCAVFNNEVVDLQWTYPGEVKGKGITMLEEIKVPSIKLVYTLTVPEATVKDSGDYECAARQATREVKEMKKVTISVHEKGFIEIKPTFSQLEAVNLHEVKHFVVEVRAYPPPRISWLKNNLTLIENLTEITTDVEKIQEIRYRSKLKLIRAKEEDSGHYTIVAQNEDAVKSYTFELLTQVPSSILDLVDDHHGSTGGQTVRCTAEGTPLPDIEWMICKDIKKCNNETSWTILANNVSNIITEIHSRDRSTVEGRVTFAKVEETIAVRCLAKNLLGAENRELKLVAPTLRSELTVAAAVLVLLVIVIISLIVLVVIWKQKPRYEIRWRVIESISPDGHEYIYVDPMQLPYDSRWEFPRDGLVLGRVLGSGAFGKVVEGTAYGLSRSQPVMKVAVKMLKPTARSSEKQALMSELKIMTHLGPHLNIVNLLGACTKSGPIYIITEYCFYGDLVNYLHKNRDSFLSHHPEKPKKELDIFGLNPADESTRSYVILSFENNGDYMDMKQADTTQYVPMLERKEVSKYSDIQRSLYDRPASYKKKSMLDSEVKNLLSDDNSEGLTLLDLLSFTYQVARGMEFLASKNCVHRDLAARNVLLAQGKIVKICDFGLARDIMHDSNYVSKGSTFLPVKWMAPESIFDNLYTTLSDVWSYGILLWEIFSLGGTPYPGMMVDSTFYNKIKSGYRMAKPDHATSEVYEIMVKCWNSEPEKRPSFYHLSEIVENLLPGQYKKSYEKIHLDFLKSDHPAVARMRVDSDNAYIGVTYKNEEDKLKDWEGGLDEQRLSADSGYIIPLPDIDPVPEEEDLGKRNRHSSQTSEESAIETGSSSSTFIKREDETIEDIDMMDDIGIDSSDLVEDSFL
Chain of Mast/stem cell growth factor receptor Kit (P10721 whole entry): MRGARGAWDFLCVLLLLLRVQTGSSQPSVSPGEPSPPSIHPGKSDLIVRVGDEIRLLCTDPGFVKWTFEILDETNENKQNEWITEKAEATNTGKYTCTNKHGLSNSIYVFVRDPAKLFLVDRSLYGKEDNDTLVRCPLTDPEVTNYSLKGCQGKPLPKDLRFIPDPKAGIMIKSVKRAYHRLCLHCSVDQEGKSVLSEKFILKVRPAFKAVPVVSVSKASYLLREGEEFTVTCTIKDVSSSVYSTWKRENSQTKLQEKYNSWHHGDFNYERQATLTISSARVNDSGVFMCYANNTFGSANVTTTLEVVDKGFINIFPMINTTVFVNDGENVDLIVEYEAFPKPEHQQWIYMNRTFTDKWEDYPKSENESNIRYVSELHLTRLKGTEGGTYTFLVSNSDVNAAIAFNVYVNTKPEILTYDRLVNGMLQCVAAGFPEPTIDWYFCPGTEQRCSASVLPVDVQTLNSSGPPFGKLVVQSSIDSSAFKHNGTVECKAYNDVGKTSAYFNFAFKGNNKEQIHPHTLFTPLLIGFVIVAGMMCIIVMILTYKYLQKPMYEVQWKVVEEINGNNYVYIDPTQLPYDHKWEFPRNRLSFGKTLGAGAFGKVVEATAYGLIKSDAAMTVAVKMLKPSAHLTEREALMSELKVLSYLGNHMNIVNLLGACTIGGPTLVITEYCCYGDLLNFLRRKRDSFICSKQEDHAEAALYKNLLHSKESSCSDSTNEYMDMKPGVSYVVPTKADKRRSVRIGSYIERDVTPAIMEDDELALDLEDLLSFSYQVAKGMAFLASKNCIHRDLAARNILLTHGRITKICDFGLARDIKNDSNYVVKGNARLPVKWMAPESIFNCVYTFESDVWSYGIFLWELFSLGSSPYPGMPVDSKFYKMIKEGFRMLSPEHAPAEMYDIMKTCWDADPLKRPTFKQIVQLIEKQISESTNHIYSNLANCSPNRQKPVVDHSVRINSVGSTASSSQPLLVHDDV

As to `CCn1c(N)c(C(=O)NC)c(=O)c2ccc(C#C[C@@](C)(O)COC)nc21`, the Activity entry in data set [1], in data set [2], in [3], in data set [11], in data set [12] and in data set [13] was “Toxic” throughout. The Activity entry in [14], in data set [15], in data set [16], in [17], in data set [18] and in [19] was “Toxic” throughout. For the same compound, the result in the data set on MDA-MB-231 [4], in the data set on HDLEC [8], with HDLEC [9] and in the data set with HDLEC [10] was Active. In addition, the IC50 with MDA-MB-231 [5] is > 50000 nM; with MDA-MB-436, > 50000 nM; in data set [6], 307 nM; in data set [7] it was 720 nM.
`COc1cc2nccc(Oc3ccc(NC(=O)NC4CC4)c(Cl)c3)c2cc1C(N)=O` [LENVATINIB]: the IC50 in [20] stood at 39 nM; in data set [21], 51 nM.
In the case of `CNC(=O)c1cc(COc2nnc(Nc3ccc(Cl)cc3)c3ccoc23)ccn1` [TELATINIB], the IC50 in data set [20] was 15 nM; in [22] it was 1 nM.
